Test results reported in PMC11696576, “Next generation thiazolyl ketone inhibitors of cytosolic phospholipase A2 α for targeted cancer therapy” (Nature Communications, 2025).
Values joined by “and” are separate entries in the source; they are usually repeats but may differ in a detail not shown here. Equal entries are not always repeated. Where two headings read alike, the source gives them in different places.

Key:
[1] = test system: SW982 synoviocytes; assay: cellular arachidonic acid (AA) release assay, IL-1β stimulated; type: cell-based, human; settings: for EC50 / IC50: SW982; for IC50: concentration in µM, read-out: logEC50 best-fit value, AA release (converted)
Excerpt: To test the inhibitory activity of the compounds in cells, we measured their effect on the release of AA from synoviocytes stimulated with IL-1β (Table 2). […] Combined with favorable selectivity and stability it was thus chosen for further evaluation. We looked specifically at how it modulated eicosanoid levels in response to stimulation both in whole blood and in isolated peripheral blood mononuclear cells (PBMCs) and checked for off-target effects on AA metabolism in whole blood by also measuring the effect of GK420 on eicosanoid release in the presence of exogenous free AA.
The human synovial sarcoma cell line SW982 (ATCC, London, UK) was used to measure AA release. The cells were maintained in Dulbecco’s Modified Eagle Medium (DMEM) supplemented with 10% FBS, 0.1 mg/mL gentamicin, and 0.3 mg/mL L-glutamine at 37 °C with 10% CO2, and experiments were performed at 3 days post-confluence. To measure AA release, the cells were labeled overnight with ^3H-AA (0.4 μCi/mL) in serum-free DMEM and then washed twice with PBS containing fBSA (2 mg/mL) to remove unincorporated radioactivity. The inhibitors, or DMSO vehicle control, were subsequently added to the cells for 1 hour prior to stimulation with 10 ng/mL IL-1β for 4 h. Supernatants were collected and centrifuged at 300 × g for 5 min to clear them of detached cells and adherent cells were dissolved in 1 N NaOH. The ^3H-AA was assessed by liquid scintillation counting (LS 6500 Multi-Purpose Scintillation Counter, Beckman Coulter, Inc., USA) and the results are given as the inhibition of released ^3H-AA in the supernatants relative to total ^3H-AA incorporated into the cells, as described. EC50 values were calculated by fitting the % inhibition data to a three-parameter dose-response curve in GraphPad prism v10.4.0. Experiments were performed in technical triplicates and repeated at least three times.

[2] = target: T1, recombinant human cPLA2α (Homo sapiens, UniProt P47712); assay: radioactivity-based mixed micelle assay, cPLA2α; type: biochemical; settings: for cPLA2α XI(50): XI(50) ± stdev, mole fraction of inhibitor in total substrate interface for 50% inhibition
T1 sequence (P47712 1-749): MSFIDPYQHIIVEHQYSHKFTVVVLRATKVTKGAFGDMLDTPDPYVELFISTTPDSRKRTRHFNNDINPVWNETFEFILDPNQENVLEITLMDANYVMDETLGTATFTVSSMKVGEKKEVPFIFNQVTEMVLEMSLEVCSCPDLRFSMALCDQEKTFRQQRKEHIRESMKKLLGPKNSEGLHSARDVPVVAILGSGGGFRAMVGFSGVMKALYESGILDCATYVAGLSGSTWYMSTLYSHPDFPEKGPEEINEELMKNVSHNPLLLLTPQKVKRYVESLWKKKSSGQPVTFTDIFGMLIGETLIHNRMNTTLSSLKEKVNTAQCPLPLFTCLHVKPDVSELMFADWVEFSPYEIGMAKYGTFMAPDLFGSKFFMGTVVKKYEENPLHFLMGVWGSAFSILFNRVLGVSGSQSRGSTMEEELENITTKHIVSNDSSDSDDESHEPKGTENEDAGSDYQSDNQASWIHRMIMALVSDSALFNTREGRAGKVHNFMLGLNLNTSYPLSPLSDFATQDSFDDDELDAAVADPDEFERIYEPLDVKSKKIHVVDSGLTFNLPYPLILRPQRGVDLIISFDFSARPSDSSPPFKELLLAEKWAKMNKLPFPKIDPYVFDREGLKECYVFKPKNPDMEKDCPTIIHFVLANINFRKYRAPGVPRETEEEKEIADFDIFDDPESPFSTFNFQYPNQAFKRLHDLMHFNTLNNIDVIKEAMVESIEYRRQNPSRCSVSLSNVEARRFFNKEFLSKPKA
Experimental: (§1) All synthesized thiazolyl ketones were tested for their in vitro inhibitory activity on recombinant human cPLA2α and selectivity over human calcium-independent GVIA iPLA2 and secreted GV sPLA2 using our previously described group-specific radioactivity-based mixed micelle assays. The inhibition results are presented either as per cent inhibition or as XI(50) values in Table 1. […] The XI(50) is defined as the mole fraction of the inhibitor in the total substrate interface required to inhibit the enzyme activity by 50%. For comparison purposes, previously published data for the inhibitor GK470[19] are included. […] Inhibitors were initially screened at 0.091 mol fraction (5 μL of 5 mM inhibitor in DMSO) in substrate (495 μL) in technical triplicates. […] The XI(50) value and stdev values reported are for the entire curve. This analysis was performed in GraphPad Prism v6.

[3] = target: T2, secreted GV sPLA2 (Homo sapiens, UniProt P39877); assay: radioactivity-based mixed micelle assay, GV sPLA2; type: biochemical
T2 sequence (P39877 21-138): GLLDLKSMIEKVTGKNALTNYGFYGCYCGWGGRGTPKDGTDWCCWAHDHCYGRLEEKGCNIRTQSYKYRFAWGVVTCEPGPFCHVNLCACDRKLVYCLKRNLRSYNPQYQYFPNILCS
Experimental: as §1

[4] = stability in human plasma (LC-MS/MS); type: in vitro ADME; settings: for Stability in human plasma 4 h: % of the compound remaining after 4 h; for Stability in human plasma 20+ h: % of the compound remaining after 20 h; for plasma stability 4h (%) / plasma stability 20h (%): individual sample, human plasma
Experimental: The stability of the analogs in human plasma was studied over approximately 24 h by LC-MS/MS and the results at 4 h and the final timepoint (20–25 h) are included in Table 1.
The metabolic stability of the compounds was determined through in vitro stability assays in human plasma. Solutions of compounds in DMSO (20 mM) were diluted to 5 μg/mL in 50% methanol for infusion into the MS/MS system and spiking of calibration standards and control samples. For the MS detection, positive ionization in ESI mode was used. Good sensitivity, retention and peak shaped were achieved using a gradient with 5 mM ammonium carbamate in water and ammonium carbamate in 90% acetonitrile on a reversed phase column (ACE3AQ). Calibration standards were spiked in a calibration range of 0.5–100 ng/ml. Control samples were spiked at, low, medium, and high concentration levels. The spiked plasma samples were prepared by protein precipitation using acetonitrile containing appropriate internal standard (IS). […] Samples were prepared for analysis by taking 50 μL of plasma sample and adding 100 μL of IS working solution in acetonitrile followed by vortexing at 2500 rpm (Multi-tube vortexer DVX-2500, Henry Troemner LLC, USA) for 2 min. The samples were centrifuged at 5300 rpm (Heraeus Megafuge 1.0 Heraeus, Germany) for 3 min and the supernatant transferred to the autosampler. Recovery was determined by comparing the prepared matrix samples (protein precipitation) with a direct sample (analytes spikes in 67% acetonitrile = injection solution) such that the recovery of the sample preparation and the matrix effects were determined together. Two or three samples were each measured in technical triplicates to give the final % recovery.

[5] = 0.2 µM, individual biological replicate
[6] = 1 µM, individual biological replicate
[7] = 5 µM, individual biological replicate
[8] = Homo sapiens, SW982, 4 h, 1 µM inhibitor, IL-1β 4 h, mean ± stdev, read-out: AA release % Inhib
[9] = Homo sapiens, IL-1β 4 h, 0.2, 1 or 5 µM inhibitor, read-out: AA release EC50 µM (95% CI)
[10] = Homo sapiens, [Agonist] vs. Response (three parameters)
[11] = Homo sapiens, [Agonist] vs. Response (three parameters), read-out: EC50 best-fit value, AA release
[12] = 0.091 mole fraction, read-out: cPLA2α % Inhib
[13] = individual technical replicate, read-out: cPLA2 % inhibition at 0.091 mole fraction
[14] = 0.091 mole fraction, read-out: GV sPLA2 % Inhib
[15] = average of triplicates, read-out: sPLA2 % inhibition at 0.091 mole fraction, average
[16] = individual technical replicate, read-out: sPLA2 % inhibition at 0.091 mole fraction

Row | EC50 [1, 9] | IC50 [1, 10] | EC50 [1, 11] | inhibition at 0.091 mole fraction [2, 12] | inhibition at 0.091 mole fraction [2, 13] | inhibition at 0.091 mole fraction [3, 14] | inhibition at 0.091 mole fraction [3, 15] | inhibition at 0.091 mole fraction [3, 16] | Stability in human plasma 4 h [4] | Stability in human plasma 20+ h [4] | plasma stability 4h (%) [4] | plasma stability 20h (%) [4] | Structure (SMILES) | % inhibition of stimulated AA release [1, 5] | % inhibition of stimulated AA release [1, 6] | % inhibition of stimulated AA release [1, 7] | inhibition at 1 µM [1, 8] | cPLA2α XI(50) [2] | other results
1 | 0.67 µM | 0.671 µM | 0.671 µM | 98% | 98.4% | 44% | 43.6% | 39.7% | 61.3% | 8.05% | 59% and 63.5% | 0% and 16.1% | CCCCCCSc1ccc(OCC(=O)c2nc(C(=O)OC)cs2)cc1 [GK427] | 24.46% and 29.82% and 29.25% | 49.86% and 62.69% | 90.15% and 92.25% and 90.43% | 56 ± 5% | 0.0010 mole fraction and 0.0010 ± 0.0001 mole fraction | inhibition at 0.2 µM ([1]; Homo sapiens, SW982, 0.2 µM, individual biological replicate): 26.4%; inhibition at 1 µM ([1]; Homo sapiens, SW982, 1 µM, individual biological replicate, read-out: % inhibition of stimulated AA release): 55.8%; inhibition at 5 µM ([1]; Homo sapiens, SW982, 5 µM, individual biological replicate): 84%; cPLA2α inhibition, Xi50 dose-response ([2]; Log [inhibitor] (mole%) -4.30, replicates): 14.10; times more potent than GK470 ([2]; cPLA2α XI(50) relative to GK470): 7–11
2 | 9.34 µM | 9.34 µM | 9.34 µM | 94% | 94.2% | 36% | 36.4% | 28.3% | 35.9% | 1.65% | 36.5% and 35.3% | 2.1% and 1.2% | COC(=O)c1csc(C(=O)C(C)Oc2ccc(Oc3ccccc3)cc2)n1 (stereo not drawn) [GK428] | 5.86% and -31.46% and 2.89% and 15.93% | 17.3% and 4.11% and 8.14% and 18.84% | 51.1% and 33.6% and 14.73% and 37.63% | 12 ± 7% | 0.0038 mole fraction and 0.0038 ± 0.0001 mole fraction | 
